Assay results published in ChEMBL document CHEMBL1144971, “Azido-containing aryl beta-diketo acid HIV-1 integrase inhibitors” (Bioorg Med Chem Lett, 2003).

Experiments:
MT4 [1] = assay: Antiviral potency was measured in HIV-1IIIb infected MT-4 human T-lymphoid cells; format: functional, cell-based
[2] = target: T1, Human immunodeficiency virus type 1 integrase (Human immunodeficiency virus 1, UniProt Q7ZJM1); assay: (§1) Inhibitory concentration against Recombinant HIV-1 integrase (3'processing)
T1 sequence (Q7ZJM1 whole entry): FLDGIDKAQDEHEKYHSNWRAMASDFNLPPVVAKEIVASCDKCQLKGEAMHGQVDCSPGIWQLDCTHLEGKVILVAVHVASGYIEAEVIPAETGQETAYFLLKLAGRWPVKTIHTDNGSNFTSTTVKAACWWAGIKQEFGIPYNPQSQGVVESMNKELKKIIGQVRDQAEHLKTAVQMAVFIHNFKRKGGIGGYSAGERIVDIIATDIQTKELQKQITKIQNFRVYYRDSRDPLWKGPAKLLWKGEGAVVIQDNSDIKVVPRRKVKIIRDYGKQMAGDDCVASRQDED

[3] = target: T1, Human immunodeficiency virus type 1 integrase; assay: (§2) Inhibitory concentration against Recombinant HIV-1 integrase (Standard transfer reaction)
[4] = target: T1, Human immunodeficiency virus type 1 integrase; assay: as §2; remark: listed apart in the source
MT4 [5] = assay: Cytotoxic concentration was measured against MT-4 human T-lymphoid cells; format: functional
[6] = target: T1, Human immunodeficiency virus type 1 integrase; assay: as §1; remark: listed apart in the source

| Compound | IC50 [2] [µM] | IC50 [3] [nM] | IC50 [4] [µM] | IC50 (MT4 [1]) [µM] | CC50 (MT4 [5]) [µM] | IC50 [6] [µM] |
| --- | --- | --- | --- | --- | --- | --- |
| COc1ccc(CN=[N+]=[N-])cc1C(=O)CC(=O)C(=O)O |  |  |  | 13.5 |  |  |
| [N-]=[N+]=NC1CCC(N=[N+]=[N-])c2cc(C(=O)CC(=O)C(=O)O)ccc21 (stereo not given) | 70 | 320 |  | 15.6 |  |  |
| O=C(O)C(=O)CC(=O)c1cccc(OCc2ccccc2)c1 | 85 | 350 |  | 0.6 |  | 100 |
| O=C(O)C(=O)CC(=O)c1cc(OCc2ccccc2)cc(OCc2ccccc2)c1 | > 100 | 480 |  | 1.9 | > 50 |  |
| [N-]=[N+]=NC1CC(N=[N+]=[N-])c2cc(C(=O)CC(=O)C(=O)O)ccc21 (stereo not given) | > 100 | 360 |  | > 25 |  |  |
| N#CCCc1cccc(C(=O)CC(=O)C(=O)O)c1 | > 100 | 1800 | 1.5 | > 25 |  |  |

The next lines start with results.

| IC50 [2] [µM] | IC50 [3] [nM] | IC50 [4] [µM] | Compound | IC50 (MT4 [1]) [µM] | CC50 (MT4 [5]) [µM] | IC50 [6] [µM] |
| --- | --- | --- | --- | --- | --- | --- |
| > 100 | 7100 | 6.1 | [N-]=[N+]=NCc1ccc(C(=O)CC(=O)C(=O)O)cc1 | > 25 |  |  |
| > 100 | 150 | 0.26 | [N-]=[N+]=NCc1ccc(C(=O)CC(=O)C(=O)O)cc1CN=[N+]=[N-] | 14.3 | > 50 |  |
| > 100 | 23000 | 25 | CC(C)Oc1ccc(CN=[N+]=[N-])cc1C(=O)CC(=O)C(=O)O | 5.9 |  |  |
| > 100 | 2000 | 2.8 | [N-]=[N+]=NCc1cc(CN=[N+]=[N-])cc(C(=O)CC(=O)C(=O)O)c1 | 5 | > 50 |  |
| > 100 | 1530 |  | [N-]=[N+]=NCc1cccc(C(=O)CC(=O)C(=O)O)c1 | 2.1 | > 50 |  |
| > 100 | 9000 | 8.5 | COc1ccc(C(=O)CC(=O)C(=O)O)cc1CN=[N+]=[N-] | > 25 |  |  |
